Test results reported in PMC10606834, “Is the Neuropeptide PEN a Ligand of GPR83?” (International Journal of Molecular Sciences, 2023).
“Also recorded” adds a separate entry of the source.

Columns and labels:
[1] = test system: GPR83 and GPR83del (HEK293 and U2OS clones; wild-type cells as comparison); test: Ligand-dependent cAMP formation; type: cell-based, human
Method: Production of cyclic adenosine monophosphate (cAMP) is a hallmark of GPCRs signaling via the Gs-induced pathway. To investigate the potential of PEN to stimulate cAMP production mediated by GPR83, levels of the second messenger were determined after incubation with PEN of various GPR83-overexpressing clones as well as wild-type HEK293 and U2OS cells.
Figure 3 Analysis of ligand-dependent, GPR83-mediated cAMP production. (A) Wild-type HEK293 and U2OS cells as well as various clones with confirmed overexpression of either GPR83 or the deletion variant GPR83del (both ± HA tag) were incubated with either buffer, 1 µM PEN, or 50 µM forskolin. (B) Selected GPR83-overexpressing HEK293 clones were assayed for cAMP production using different concentrations of PEN. (C) Selected GPR83-overexpressing U2OS clones were assayed for cAMP production using different concentrations of PEN.
To measure intracellular cAMP production, the LANCE Ultra cAMP kit (Perkin Elmer) was used according to the manufacturer’s instructions. The day before the experiment, cells were seeded onto a 96-well plate with approximately 80% confluence. After 16–24 h, the medium was removed, and 100 μL/well of serum-free medium was added, followed by a 3 h incubation. Thereafter, medium was removed, and 40 μL of ligand dissolved in cAMP stimulation buffer was pipetted onto cells, then incubated for 10 min. The ligands used were pipetted in duplicate. For concentration–response curves, serial dilutions were carried out from the stock solutions of 1 mM to create a concentration range from 1 µM to 30 pM. As controls, 4 wells were treated with buffer only (negative control) and 4 wells with 50 μM forskolin (positive control). After a 10 min incubation, 10 μL of a 0.5% Triton-X 100 solution in PBS was added to each well. To lyse cells, the plate was shaken on a Vibramax 100 Shaker (Heidolph, Kelheim, Germany) (750 rpm) at room temperature for 10 min. A 10 μL volume of the cell lysates were transferred into a white 384 well plate (ProxiPlate, PerkinElmer). A 5 μL volume of the Europium-cAMP tracer (1 to 50 dilution of Eu-tracer stock in cAMP detection buffer) was added to each well. Next, 5 μL of the ULight-anti-cAMP solution (1 to 150 dilution of ULight-tracer stock in cAMP detection buffer) was added to each well. After a 1 h incubation period at room temperature in the dark, the TR-FRET signal was measured using an EnVision 2103 Multilabel Reader (Perkin Elmer).

[2] = test system: GPR83 with chimeric Gα16/i3 protein (CHO cells); details: CHO cells transfected with GPR83 and chimeric Gα16/i3 protein; ref [10]; cited from earlier work
Text: In the present study, evidence for a molecular interaction of the neuropeptide PEN with the cell surface receptor GPR83 could not be found.

GPR83 (HTLA cells) = test: TANGO β-arrestin assay, GPR83; type: cell-based, human; details: ligand library containing PEN (library plates 10 µM); HTLA cells expressing GPR83; PRESTO-Tango, RLU
Method: The TANGO assay reports GPCR-related activation of β-arrestin using a luminescent readout.
For the determination of β-arrestin recruitment after GPCR activation, the PRESTO-Tango system was utilized. On day one, HTLA cells (HEK293 cell line stably expressing a tTA-dependent luciferase reporter and a β-arrestin2-TEV fusion gene, maintained in RPMI supplemented with 10% FBS, 2 μg/mL puromycin, and 100 μg/mL hygromycin) were seeded into 150 mm cell culture plates at 1 × 10^7 cells per well in 30 mL of medium. The next day, transfections were performed directly in the 150 mm plates using jetPEI (Polyplus, Illkirch, France). Plasmid DNA of interest was prepared for transfection following the jetPEI protocol and with a DNA/jetPEI ratio of 1:1. A GFP-encoding plasmid was added as a transfection control (GFP plasmid added as 10% of total DNA to the total NaCl used for plasmid DNA dilution). On day 3, transfected cells were transferred at 15,000 cells per well in 30 μL of medium into 384-well black well, clear bottom plates. On day 4, ligand library multiwall plates (10 µM) were thawed, and 23 μL was added to each well. On day 5, 50 μL per well of BrightGlo luminescence reagent (diluted 10-fold with HBSS buffer) was carefully added, and plates were incubated for 10 min before luminescence reading in the EnVision 2103 Multilabel Reader (Perkin Elmer).

[3] = test system: GPR83 (CHO and Neuro2A cells); details: CHO and Neuro2A cells overexpressing human GPR83; ref [10]; cited from earlier work
Text: (§1) While the earlier study employed CHO cells from Cricetulus griseus and Neuro2A cells from Mus musculus overexpressing human GPR83 [10], this study used human HEK293 and U2OS c ...

HEK293 cells = details: some batches of HEK293 cells; ref [10]; cited from earlier work
Text: as §1

AADHDVGSELPPEGVLGALLRV [PEN, batch #1 synthesized, batch #2 purchased from Phoenix Pharmaceuticals]
cAMP levels ([1]; 1 µM PEN or 50 µM forskolin, GPR83-overexpressing clones and wild-type HEK293 and U2OS cells, 10 min incubation, LANCE Ultra cAMP kit, TR-FRET competition, duplicate): did not change it | cAMP formation, concentration-response ([1]; titration 50 pM to 1 µM, selected GPR83-expressing HEK293 and U2OS clones, LANCE Ultra cAMP kit, TR-FRET, 10 min incubation, duplicate): did not indicate PEN-dependent cAMP formation | increased (via Gs) or decreased (via Gi) production of cAMP ([1]; up to 1 µM PEN, multiple clones of GPR83-overexpressing HEK293 and U2OS cells): did not reveal any evidence for an increased (via Gs) or decreased (via Gi) production of cAMP | intracellular Ca2+ mobilization [2]: PEN-induced intracellular Ca^2+ mobilization | β-arrestin activation (luminescence) (GPR83 (HTLA cells)): no reactivity was detected; also recorded: failed to generate a signal | GPR83-mediated cAMP signaling [3]: Modification of GPR83-mediated cAMP signaling by PEN has been previously reported | response of HEK293 cells (HEK293 cells): had not responded to PEN
